We go through one molecule from ChEMBL document CHEMBL1156441, “Mechanism of inactivation of plasminogen activator inhibitor-1 by a small molecule inhibitor” (J Biol Chem, 2007).

Set-up in all cases: scale not given: the % may be the effect or the level left
For experiment [1], the species on record is Homo sapiens. Briefly: Inhibition of human non-glycosylated PAI1 F114A mutant using urokinase type plasminogen activator substrate assessed as change in IC50 value relative to wild type by direct chromogenic assay.
The species entered for experiment [2] is Homo sapiens. Briefly: Inhibition of human non-glycosylated PAI1 H143A mutant using urokinase type plasminogen activator substrate assessed as change in IC50 value relative to wild type by direct chromogenic assay.
Experiment [3] is filed under the species Homo sapiens. Briefly: Inhibition of human non-glycosylated PAI1 K122A mutant using urokinase type plasminogen activator substrate assessed as change in IC50 value relative to wild type by direct chromogenic assay.
The species entered for experiment [4] is Homo sapiens. Put plainly: Inhibition of human non-glycosylated PAI1 K80A mutant using urokinase type plasminogen activator substrate assessed as change in IC50 value relative to wild type by direct chromogenic assay.
For experiment [5], the species on record is Homo sapiens. Briefly: Inhibition of human non-glycosylated PAI1 T93A mutant using urokinase type plasminogen activator substrate assessed as change in IC50 value relative to wild type by direct chromogenic assay.
The species named for experiment [6] is Homo sapiens. Briefly: Inhibition of human non-glycosylated PAI1 R76A mutant using urokinase type plasminogen activator substrate assessed as change in IC50 value relative to wild type by direct chromogenic assay.
The species named for experiment [7] is Homo sapiens. Briefly: Inhibition of human non-glycosylated PAI1 T120A mutant using urokinase type plasminogen activator substrate assessed as change in IC50 value relative to wild type by direct chromogenic assay.
The species named for experiment [8] is Homo sapiens. Put plainly: Inhibition of human non-glycosylated PAI1 R118A mutant using urokinase type plasminogen activator substrate assessed as change in IC50 value relative to wild type by direct chromogenic assay.
The species named for experiment [9] is Homo sapiens. Put plainly: Inhibition of human non-glycosylated PAI1 T94A mutant using urokinase type plasminogen activator substrate assessed as change in IC50 value relative to wild type by direct chromogenic assay.
For experiment [10], the species on record is Homo sapiens. Put plainly: Inhibition of human non-glycosylated PAI1 D95A mutant using urokinase type plasminogen activator substrate assessed as change in IC50 value relative to wild type by direct chromogenic assay.
The species entered for experiment [11] is Homo sapiens. Briefly: Inhibition of human non-glycosylated PAI1 Y79A mutant using urokinase type plasminogen activator substrate assessed as change in IC50 value relative to wild type by direct chromogenic assay.

Turning to `O=C(O)C(=O)c1cn(Cc2ccccc2)c2ccc(-c3ccc(OC(F)(F)F)cc3)cc12`, the Activity in the experiment filed under Homo sapiens [1] is 3%; in the experiment listed under Homo sapiens [2], -14%; in the experiment filed under Homo sapiens [3] it was -25%; in the experiment filed under Homo sapiens [4] it was 14%; in the experiment filed under Homo sapiens [5], 27%; in the experiment filed under Homo sapiens [6], 48%. Further, the Activity is -21% in the experiment listed under Homo sapiens [7]; 7% in the experiment filed under Homo sapiens [8]; 54% in the experiment listed under Homo sapiens [9]; 58% in the experiment listed under Homo sapiens [10]; 28% in the experiment filed under Homo sapiens [11].
